Assay results as given in PubChem BioAssay AID651986 (The Scripps Research Institute Molecular Screening Center, 2013).
Activity calls are given as the source filed them. How the calls were made is not given here.

How the values were obtained:
Experiment in all cases: in situ LYPLA1 and LYPLA2 inhibition, late-stage follow-up, gel-based ABPP, fluorescence, HEK293T, murine T cells (AID 651986)
[1] = target: Acyl-protein thioesterase 2 (Homo sapiens) (UniProt O95372); conditions: HEK293T or murine T cells, NHU5 gel-based ABPP, LYPLA2 HEK293T cells, at 5 µM, stronger effect = higher value
Sequence of Acyl-protein thioesterase 2 (Homo sapiens) (O95372 whole entry, looked up): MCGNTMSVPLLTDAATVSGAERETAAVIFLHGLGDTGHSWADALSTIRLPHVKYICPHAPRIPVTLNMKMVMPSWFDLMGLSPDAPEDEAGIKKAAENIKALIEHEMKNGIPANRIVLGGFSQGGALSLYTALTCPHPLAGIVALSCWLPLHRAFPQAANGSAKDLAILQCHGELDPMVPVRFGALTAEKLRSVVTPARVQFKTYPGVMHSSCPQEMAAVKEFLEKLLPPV

[2] = test system: LYPLA1 murine T cells; conditions: HEK293T or murine T cells, NHU5 gel-based ABPP, at 5 µM, stronger effect = higher value
[3] = target: Acyl-protein thioesterase 1 (Homo sapiens) (UniProt O75608); conditions: HEK293T or murine T cells, NHU5 gel-based ABPP, LYPLA1 HEK293T cells, at 5 µM, stronger effect = higher value
Sequence of Acyl-protein thioesterase 1 (Homo sapiens) (O75608 whole entry, looked up): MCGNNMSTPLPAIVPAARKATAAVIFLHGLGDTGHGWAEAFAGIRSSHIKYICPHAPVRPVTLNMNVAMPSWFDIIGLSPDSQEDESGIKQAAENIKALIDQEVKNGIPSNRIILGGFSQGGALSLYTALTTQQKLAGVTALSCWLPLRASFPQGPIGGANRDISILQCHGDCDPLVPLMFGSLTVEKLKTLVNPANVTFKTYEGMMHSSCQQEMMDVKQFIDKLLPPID

[4] = test system: LYPLA2 murine T cells; conditions: HEK293T or murine T cells, NHU5 gel-based ABPP, at 5 µM, stronger effect = higher value

inhibition [1] | inhibition [2] | inhibition [3] | inhibition [4] | Compound
0% (inactive) | 100% | 100% | 0% (inactive) | O=C(CN1CCN(C(=O)c2ccco2)CC1)Nc1cc(C(F)(F)F)ccc1Cl
100% | 0% (inactive) | 0% (inactive) | 100% | COc1ccc(N2CCN(C(=O)c3cc4c(s3)-c3ccccc3S(=O)(=O)C4)CC2)cc1
